Measured values published in ChEMBL document CHEMBL3414518, “Development of selective DprE1 inhibitors: Design, synthesis, crystal structure and antitubercular activity of benzothiazolylpyrimidine-5-carboxamides” (Eur J Med Chem, 2015).
Values after ≈ are worked out from the molar mass of the structure shown.

What was measured:
[1] = tested on: Mycobacterium tuberculosis; assay: Antitubercular activity against Mycobacterium tuberculosis H37Rv ATCC 27294 after 5 days by broth microdilution method; type: functional; conditions: H37Rv ATCC 27294, 120 h
[2] = Inhibition of Mycobacterium tuberculosis DprE1 using beta-D-ribofuranose as substrate after 7 mins by UV-Visible spectroscopy
[3] = Partition coefficient, log P of the compound in PBS at 10 mM at pH 7.4 after 5 hrs by shake flask method; type: physicochemical
[4] = Cmax in Sprague-Dawley rat at 10 mg/kg, iv; type: ADME, organism-based; design: dose 10 mg/kg, route intravenous; conditions: in vivo
[5] = Elimination half life in Sprague-Dawley rat at 10 mg/kg, iv; type: ADME, organism-based; design: dose 10 mg/kg, route intravenous; conditions: in vivo, read-out: beta t1/2 (converted)
[6] = AUC (0 to infinity) in Sprague-Dawley rat at 10 mg/kg, iv; type: ADME, organism-based; design: time infinity, dose 10 mg/kg, route intravenous; conditions: plasma
[7] = Cmax in Sprague-Dawley rat at 20 mg/kg, po; type: ADME, organism-based; design: dose 20 mg/kg, route oral; conditions: in vivo
[8] = Tmax in Sprague-Dawley rat at 20 mg/kg, po; type: ADME, organism-based; design: dose 20 mg/kg, route oral; conditions: in vivo
[9] = Elimination half life in Sprague-Dawley rat at 20 mg/kg, po; type: ADME, organism-based; design: dose 20 mg/kg, route oral; conditions: in vivo, read-out: beta t1/2 (converted)
[10] = AUC (0 to infinity) in Sprague-Dawley rat at 20 mg/kg, po; type: ADME, organism-based; design: time infinity, dose 20 mg/kg, route oral; conditions: plasma
[11] = Oral bioavailability in Sprague-Dawley rat at 20 mg/kg; type: ADME, organism-based; conditions: in vivo

Work on `CC1=C(C(=O)Nc2nc3ccccc3s2)C(c2ccc(O)cc2)NC(=S)N1` (stereo not given) yielded an MIC [1] of 2.4 µM (≈ 0.952 µg/mL).

`COc1ccccc1C1NC(=S)NC(C)=C1C(=O)Nc1nc2ccccc2s1` (stereo not given) gave an MIC [1] of 0.5 µM (≈ 0.205 µg/mL).

Compound `NNC(=O)c1ccncc1` [ISONIAZID] has an MIC [1] of 0.2 µM (≈ 0.0274 µg/mL).

Work on `CC1=C(C(=O)Nc2nc3ccccc3s2)C(c2ccc(F)cc2)NC(=S)N1` (stereo not given) yielded an MIC [1] of 0.09 µM (≈ 0.0359 µg/mL), an IC50 [2] of 9.2 µM and a logD at 5 h [3] of 2.18. For the same compound, the Cmax [4] was 1500 ng/mL, the half-life [5] was 2.8 h and the AUC(0-inf) [6] was 1530 ng·h/mL. The Cmax [7] was 340 ng/mL, the Tmax [8] was 0.6 h and the half-life [9] was 5.8 h. It also gave an AUC(0-inf) [10] of 810 ng·h/mL and a bioavailability [11] of 51.9%.

`CC1=C(C(=O)Nc2nc3ccccc3s2)C(c2ccccc2)NC(=S)N1` (stereo not given) showed an MIC [1] of 0.08 µM (≈ 0.0304 µg/mL), an IC50 [2] of 7.7 µM and a logD at 5 h [3] of 2.03. The Cmax [4] was 1800 ng/mL, the half-life [5] was 2.6 h and the AUC(0-inf) [6] was 1500 ng·h/mL. The Cmax [7] was 590 ng/mL, the Tmax [8] was 0.5 h and the half-life [9] was 5.5 h. For the same compound, the AUC(0-inf) [10] was 790 ng·h/mL and the bioavailability [11] was 52.7%.

Work on `COc1cc(C2NC(=S)NC(C)=C2C(=O)Nc2nc3ccccc3s2)cc(OC)c1O` (stereo not given) yielded an MIC [1] of 1.2 µM (≈ 0.548 µg/mL).

With `CC1=C(C(=O)Nc2nc3ccccc3s2)C(c2ccccc2O)NC(=S)N1` (stereo not given) the MIC [1] was 2.4 µM (≈ 0.952 µg/mL).

With `CC1=C(C(=O)Nc2nc3ccccc3s2)C(c2ccc(Br)cc2)NC(=S)N1` (stereo not given) the MIC [1] was 0.4 µM (≈ 0.184 µg/mL).

For `CC1=C(C(=O)Nc2nc3ccccc3s2)C(c2ccc([N+](=O)[O-])cc2)NC(=S)N1` (stereo not given), the MIC [1] was 1.2 µM (≈ 0.511 µg/mL).

For `CC1=C(C(=O)Nc2nc3ccccc3s2)C(c2ccc(N(C)C)cc2)NC(=S)N1` (stereo not given), the MIC [1] was 0.08 µM (≈ 0.0339 µg/mL), the IC50 [2] was 10.3 µM and the logD at 5 h [3] was 2.22. For the same compound, the Cmax [4] was 1620 ng/mL, the half-life [5] was 2.5 h and the AUC(0-inf) [6] was 1480 ng·h/mL. It also gave a Cmax [7] of 410 ng/mL, a Tmax [8] of 0.5 h and a half-life [9] of 1.4 h. It also gave an AUC(0-inf) [10] of 780 ng·h/mL and a bioavailability [11] of 52.7%.

Compound `COc1cccc(C2NC(=S)NC(C)=C2C(=O)Nc2nc3ccccc3s2)c1O` (stereo not given) has an MIC [1] of 1.4 µM (≈ 0.597 µg/mL).

`CC1=C(C(=O)Nc2nc3ccccc3s2)C(c2ccc(C(F)(F)F)cc2)NC(=S)N1` (stereo not given) showed an MIC [1] of 0.09 µM (≈ 0.0404 µg/mL), an IC50 [2] of 11.1 µM and a logD at 5 h [3] of 2.92. The Cmax [4] was 1730 ng/mL, the half-life [5] was 2.6 h and the AUC(0-inf) [6] was 1640 ng·h/mL. The Cmax [7] was 490 ng/mL, the Tmax [8] was 0.6 h and the half-life [9] was 6 h. For the same compound, the AUC(0-inf) [10] was 830 ng·h/mL and the bioavailability [11] was 50.6%.

`CC1=C(C(=O)Nc2nc3ccccc3s2)C(c2ccccc2[N+](=O)[O-])NC(=S)N1` (stereo not given) gave an MIC [1] of 1.2 µM (≈ 0.511 µg/mL).

In the case of `CC1=C(C(=O)Nc2nc3ccccc3s2)C(c2ccc(Cl)cc2)NC(=S)N1` (stereo not given), the MIC [1] is reported as 0.32 µM (≈ 0.133 µg/mL).

For `COc1ccc(C2NC(=S)NC(C)=C2C(=O)Nc2nc3ccccc3s2)cc1` (stereo not given), the MIC [1] was 0.5 µM (≈ 0.205 µg/mL).

`CC1=C(C(=O)Nc2nc3ccccc3s2)C(c2cccc([N+](=O)[O-])c2)NC(=S)N1` (stereo not given) gave an MIC [1] of 1.3 µM (≈ 0.553 µg/mL).

`CC1=C(C(=O)Nc2nc3ccccc3s2)C(c2ccc(Cl)cc2Cl)NC(=S)N1` (stereo not given) showed an MIC [1] of 0.25 µM (≈ 0.112 µg/mL).

`COC(=O)c1ccc(C2NC(=S)NC(C)=C2C(=O)Nc2nc3ccccc3s2)cc1` (stereo not given) showed an MIC [1] of 3.1 µM (≈ 1.36 µg/mL).

For `COc1ccc(C2NC(=S)NC(C)=C2C(=O)Nc2nc3ccccc3s2)cc1O` (stereo not given), the MIC [1] was 1.2 µM (≈ 0.512 µg/mL).

With `CC1=C(C(=O)Nc2nc3ccccc3s2)C(c2ccccc2Cl)NC(=S)N1` (stereo not given) the MIC [1] was 0.32 µM (≈ 0.133 µg/mL).
